The experiment concerns HIF-1-mediated transcription. Kind of experiment: HIF-1-mediated transcription under hypoxia, LN229-HRE-Lux luciferase reporter assay. It is filed as cell-based, human. Particulars: 24 h, LN229-HRE-Lux cells, hypoxia (1% O2), 24 h. Here is the method:
The synthesized analogues were evaluated for their potential to inhibit HIF-1-mediated transcription under hypoxia (1% O2) using a human glioma cell line LN229-HRE-Lux, which stably expresses a hypoxia-responsive luciferase reporter gene (Table 1-9). […] The compounds were tested in single (n=1) or multiple (n>1) independent experiments each carried out in quadruplicate.
LN229-HRE-luciferase human glioblastoma cells were used to perform the assay. […] 48-well plates were seeded with 3.10^4 cells per well and incubated under normoxic conditions for 24 h. Cells were then pre-treated with different concentrations of KCN-1 or its analogues for 1 h and then transferred to hypoxic conditions. After 24 h, media was aspirated, cells were lysed and reporter activity was measured in the lysate using Luciferase Assay System (Promega, Madison, Wis.) with 20/20^n Luminometer (Promega).

[1] abbreviates: Homo sapiens, Table 1, read-out: IC50.
The mark [2] stands for this setting: Homo sapiens, Table 2, read-out: IC50.
Where [3] appears, read: Homo sapiens, Table 3, read-out: IC50.
Setting [4] is: Homo sapiens, Table 4, read-out: IC50.
Setting [5] is: Homo sapiens, Table 5, read-out: IC50.
The mark [6] stands for this setting: Homo sapiens, Table 6, read-out: IC50.

Where two headings read alike, the source gives them in different places. A value given as a limit tells only on which side of the number the result lay.

For the molecule `COc1ccc(NCc2ccc3c(c2)C=CC(C)(C)O3)cc1OC` [Compound 2a, (3,4-Dimethoxy-phenyl)-(2,2-dimethyl-2H-chromen-6-ylmethyl)-amine], the concentration for half-maximal inhibition (IC50) under setting [1] turned out to be 3000 nM.
The same measure, in the same setting: with `Cc1ccc(NCc2ccc3c(c2)C=CC(C)(C)O3)c(C)c1` [Compound 2c, (2,2-Dimethyl-2H-chromen-6-ylmethyl)-(2,4-dimethyl-phenyl)-amine] the figure was above 25000 nM; with `CC1(C)C=Cc2cc(CNc3ccc(C(=O)O)cc3)ccc2O1` [Compound 2d, 4-[(2,2-Dimethyl-2H-chromen-6-ylmethyl)-amino]-benzoic acid], above 25000 nM; with `CC1(C)C=Cc2cc(CNc3ccccc3Br)ccc2O1` [Compound 2e, (2-Bromo-phenyl)-(2,2-dimethyl-2H-chromen-6-ylmethyl)-amine], above 25000 nM.
Take `CC1(C)C=Cc2cc(CNc3ccccc3F)ccc2O1` [Compound 2f, (2,2-Dimethyl-2H-chromen-6-ylmethyl)-(2-fluoro-phenyl)-amine]: under setting [1], the IC50 is above 25000 nM.
On to `COc1ccc(N(C)Cc2ccc3c(c2)C=CC(C)(C)O3)cc1OC` [Compound 3a, (3,4-Dimethoxy-phenyl)-(2,2-dimethyl-2H-chromen-6-ylmethyl)-methylamine], for which the IC50 under setting [1] was determined as 5000 nM.
Same read-out and setting: with `CN(Cc1ccc2c(c1)C=CC(C)(C)O2)c1ccccn1` [Compound 3b, (2,2-Dimethyl-2H-chromen-6-ylmethyl)-methyl-pyridin-2-yl-amine] the figure was 8400 nM.
For the molecule `Cc1ccc(N(C)Cc2ccc3c(c2)C=CC(C)(C)O3)c(C)c1` [Compound 3c, (2,2-Dimethyl-2H-chromen-6-ylmethyl)-(2,4-dimethyl-phenyl)-methyl-amine], the IC50 under setting [1] worked out at 2600 nM and the IC50 (Homo sapiens, read-out: IC50) worked out at 2600 nM.
`COc1ccc(S(=O)(=O)N(Cc2ccc3c(c2)C=CC(C)(C)O3)C(C)C)cc1OC` [Compound 5a, N-(2,2-Dimethyl-2H-chromen-6-ylmethyl)-N-isopropyl-3,4-dimethoxy-benzenesulfonamide]: under setting [2], the IC50 was found to be 3100 nM.
As to `C#CCN(Cc1ccc2c(c1)C=CC(C)(C)O2)S(=O)(=O)c1ccc(OC)c(OC)c1` [Compound 5b, N-(2,2-Dimethyl-2H-chromen-6-ylmethyl)-3,4-dimethoxy-N-prop-2-ynyl-benzenesulfonamide], the IC50 stood at 1300 nM under setting [2] and 1300 nM (Homo sapiens, read-out: IC50).
On to `CCCCN(Cc1ccc2c(c1)C=CC(C)(C)O2)S(=O)(=O)c1ccc(OC)c(OC)c1` [Compound 5c, N-Butyl-N-(2,2-dimethyl-2H-chromen-6-ylmethyl)-3,4-dimethoxy-benzenesulfonamide], for which the 50% inhibitory concentration (IC50) reads like this: under setting [2], 3300 nM; (Homo sapiens, read-out: IC50) 3300 nM.
Consider `COc1ccc(S(=O)(=O)N(Cc2ccc3c(c2)C=CC(C)(C)O3)C(C)(C)C)cc1OC` [Compound 5d, N-tert-Butyl-N-(2,2-dimethyl-2H-chromen-6-ylmethyl)-3,4-dimethoxy-benzenesulfonamide], for which the half-inhibitory concentration (IC50) by setting is: under setting [2], 3500 nM; (Homo sapiens, read-out: IC50) 3500 nM.
Turning to `C=CCN(Cc1ccc2c(c1)C=CC(C)(C)O2)S(=O)(=O)c1ccc(OC)c(OC)c1` [Compound 5e, N-Allyl-N-(2,2-dimethyl-2H-chromen-6-ylmethyl)-3,4-dimethoxy-benzenesulfonamide], the IC50 under setting [2] was determined as 3400 nM.
For the molecule `COc1ccc(S(=O)(=O)N(CCC(C)C)Cc2ccc3c(c2)C=CC(C)(C)O3)cc1OC` [Compound 5f, N-(2,2-Dimethyl-2H-chromen-6-ylmethyl)-3,4-dimethoxy-N-(3-methyl-butyl)-benzenesulfonamide], the half-inhibitory concentration (IC50) under setting [2] came out at 1600 nM.
`COc1ccc(S(=O)(=O)N(Cc2ccc3c(c2)C=CC(C)(C)O3)C2CCCC2)cc1OC` [Compound 5g, N-Cyclopentyl-N-(2,2-dimethyl-2H-chromen-6-ylmethyl)-3,4-dimethoxy-benzenesulfonamide]: the IC50 was 500 nM under setting [2] and 1600 nM (Homo sapiens, read-out: IC50).
On to `COc1ccc(S(=O)(=O)N(Cc2ccc3c(c2)C=CC(C)(C)O3)C2CC2)cc1OC` [Compound 5h, Cyclopropyl-N-(2,2-dimethyl-2H-chromen-6-ylmethyl)-3,4-dimethoxy-benzenesulfonamide], for which the IC50 (Table 2, read-out: IC50) worked out at 1500 nM.
Turning to `COc1ccc(S(=O)(=O)N(Cc2ccc3c(c2)C=CC(C)(C)O3)C2CCCCC2)cc1OC` [Compound 5i, N-Cyclohexyl-N-(2,2-dimethyl-2H-chromen-6-ylmethyl)-3,4-dimethoxy-benzenesulfonamide], the half-maximal inhibitory concentration (IC50) under setting [2] amounted to 4000 nM.
As to `COc1ccc(S(=O)(=O)N(Cc2ccc3c(c2)C=CC(C)(C)O3)c2ccccc2)cc1` [Compound 5j, N-((2,2-Dimethyl-2H-chromen-6-yl)methyl)-4-methoxy-N-phenylbenzenesulfonamide], the IC50 under setting [3] turned out to be 600 nM.
Take `Cc1cc(C)cc(S(=O)(=O)N(Cc2ccc3c(c2)C=CC(C)(C)O3)c2ccccc2)c1` [Compound 5k, N-((2,2-Dimethyl-2H-chromen-6-yl)methyl)-3,5-dimethyl-N-phenylbenzenesulfonamide]: the IC50 runs as follows: under setting [3], 500 nM; (Homo sapiens, read-out: IC50) 600 nM.
Turning to `CC1(C)C=Cc2cc(CN(c3ccccc3)S(=O)(=O)c3cc(Cl)ccc3Cl)ccc2O1` [Compound 5l, 2,5-Dichloro-N-((2,2-dimethyl-2H-chromen-6-yl)methyl)-N-phenylbenzenesulfonamide], the IC50 under setting [3] was 2100 nM.
On the same count and under the same terms, in the case of `CC1(C)C=Cc2cc(CN(c3ccccc3)S(=O)(=O)c3ccc(Br)cc3OC(F)(F)F)ccc2O1` [Compound 5m, 4,4-Bromo-N-((2,2-dimethyl-2H-chromen-6-yl)methyl)-N-phenyl-2-(trifluoromethoxy)benzenesulfonamide] it was above 25000 nM.
Regarding `CCC1(C)C=Cc2cc(CN(c3ccccc3)S(=O)(=O)c3ccc(OC)c(OC)c3)ccc2O1` (stereo not shown) [Compound 10, N-((2-Ethyl-2-methyl-2H-chromen-6-yl)methyl)-3,4-dimethoxy-N-phenylbenzenesulfonamide], the IC50 under setting [4] came out at 3100 nM and the half-maximal inhibitory concentration (IC50) (Homo sapiens, read-out: IC50) was determined as 2200 nM.
For the molecule `COc1ccc(S(=O)(=O)N(Cc2cnc3ccccc3c2)c2ccccc2)cc1OC` [Compound 13, 3,4-Dimethoxy-N-phenyl-N-(quinolin-3-ylmethyl)benzenesulfonamide], the IC50 is 1300 nM under setting [4] and 3500 nM (Homo sapiens, read-out: IC50).
As to `COc1ccc(S(=O)(=O)N(Cc2ccc3c(c2)CC(C)(C)O3)c2ccccc2)cc1OC` [Compound 16a, N-((2,2-Dimethyl-2,3-dihydrobenzofuran-5-yl)methyl)-3,4-dimethoxy-N-phenylbenzenesulfonamide], the 50% inhibitory concentration (IC50) under setting [5] worked out at 500 nM.
Consider `COc1ccc(S(=O)(=O)N(Cc2ccc3c(c2)CC(C)(C)O3)C2CCCCCC2)cc1OC` [Compound 16b, N-Cycloheptyl-N-((2,2-dimethyl-2,3-dihydrobenzofuran-5-yl)methyl)-3,4dimethoxybenzenesulfonamide], for which the concentration for half-maximal inhibition (IC50) is, setting by setting: under setting [5], 9100 nM; (Homo sapiens, read-out: IC50) 9100 nM.
Regarding `COc1ccc(S(=O)(=O)N(Cc2ccc3c(c2)CC(C)(C)O3)C(C)C)cc1OC` [Compound 16c, N-((2,2-dimethyl-2,3-dihydrobenzofuran-5-yl)methyl)-N-isopropyl-3,4-dimethoxybenzenesulfonamide], under setting [5], the IC50 was 1500 nM.
Consider `CCCCN(Cc1ccc2c(c1)CC(C)(C)O2)S(=O)(=O)c1ccc(OC)c(OC)c1` [Compound 16d, N-Butyl-N-((2,2-dimethyl-2,3-dihydrobenzofuran-5-yl)methyl)-3,4-dimethoxybenzenesulfonamide], for which the IC50 under setting [5] stood at 600 nM.
Regarding `COc1ccc(S(=O)(=O)N(Cc2ccc3c(c2)CC(C)(C)O3)C2CCCCC2)cc1OC` [Compound 16e, N-Cyclohexyl-N-((2,2-dimethyl-2,3-dihydrobenzofuran-5-yl)methyl)-3,4-dimethoxybenzenesulfonamide], the IC50 (Homo sapiens, Table 5) was 8200 nM and the 50% inhibitory concentration (IC50) (Homo sapiens) stood at 8200 nM.
As for `COc1ccc(S(=O)(=O)N(Cc2ccc3c(c2)CC(C)(C)O3)C2CCCC2)cc1OC` [Compound 16f, N-Cyclopentyl-N-((2,2-dimethyl-2,3-dihydrobenzofuran-5-yl)methyl)-3,4-dimethoxybenzenesulfonamide], the IC50 under setting [5] came out at 400 nM and the half-inhibitory concentration (IC50) (Homo sapiens, read-out: IC50) came to 400 nM.
On to `COc1ccc(S(=O)(=O)N(Cc2cnc3c(c2)C=CC(C)(C)O3)c2ccccc2)cc1OC` [Compound 20a, N-((2,2-Dimethyl-2H-pyrano[2,3-b]pyridin-6-yl)methyl)-3,4-dimethoxy-N-phenylbenzenesulfonamide], for which the concentration for half-maximal inhibition (IC50) runs as follows: under setting [6], 2500 nM; (Homo sapiens, read-out: IC50) 2500 nM.
As for `COc1ccc(S(=O)(=O)N(Cc2cnc3c(c2)C=CC(C)(C)O3)C2CCCCC2)cc1OC` [Compound 20b, N-Cyclohexyl-N-((2,2-dimethyl-2H-pyrano[2,3-b]pyridin-6-yl)methyl)-3,4-dimethoxybenzenesulfonamide], the 50% inhibitory concentration (IC50) under setting [6] is above 25000 nM.

The values are drawn from patent US9062072B2, “Inhibitors of HIF and angiogenesis” (Emory University, priority 2010, dated 2015).
